# “And” between values parts separate entries of the source, which are not always exact repeats. Identical values can stand only once. Like-named read-outs stand apart in the source and are kept apart here.
# Tests used:
# [1] = biological target: T1, AChE (Homo sapiens, UniProt P22303); assay: biochemical; conditions: for SI(AChE/BChE): selectivity index = IC50 (AChE)/IC50 (BChE)
# Description: (§1) Butyrylthiocholine iodide and acetylthiocholine were utilized as substrates in BChE and AChE assays, respectively, where DTNB was served as indicator. All compounds were dissolved in MeOH. […] Blank assays were performed by replacing the enzyme (20 μL) with buffer and their absorbances were recorded for correction of the spontaneous lysis of the indicator or inherent color of the inhibitor.
# Selectivity index (SI) for acetyl and butyryl cholinesterases was calculated as follow:SI(AChE/BChE) = IC50 (AChE)/IC50 (BChE)SI(BChE/AChE) = […]
# [2] = biological target: T2, BChE (Homo sapiens, UniProt P06276); assay: biochemical; conditions: for SI(BChE/AChE): selectivity index BChE/AChE
# Description: as §1, with “inhibitor. […]” for “inhibitor.”
# [3] = test system: RPE1 (human immortalized retinal pigment epithelial cell line); assay: Antiproliferative/cytotoxicity MTT assay on normal cell line; assay type: cell-based; conditions: RPE-1, 72 h incubation, tested at 100, 50, 25 and 12.5 μM, read-out: IC50 against RPE1
# Source text: Antiproliferative properties of the synthesized agents 8a–l were considered against RPE1 (human immortalized retinal pigment epithelial cell line) normal cell line utilizing the standard MTT (tetrazolium salt) technique.[37]
# The synthesized agents 8a–l were screened against RPE1 (human immortalized retinal pigment epithelial cell line) normal cell line to investigate their cytotoxicity by the standard mitochondrial dependent reduction of yellow MTT [3-(4,5-dimethylthiazol-2-yl)-2,5-diphenyl-tetrazolium bromide] to purple formazan technique.[37] Cells were suspended in DMEM in addition to 1% antibiotic–antimycotic mixture (10 000 μg mL^−1 potassium penicillin, 10 000 μg mL^−1 streptomycin sulfate and 25 μg mL^−1 amphotericin B), 10% fetal bovine serum and 1% L-glutamine at 37 °C, under 5% CO2 and 95% humidity. Cells were seeded at concentration of 30 000 cells per well in fresh complete growth medium in 96-well tissue culture microtiter plates for 24 h. […] 0.5% DMSO was used as negative control. Triplicate wells were prepared for each individual dose. After 72 h of incubation, medium was aspirated, 40 μl MTT salt (2.5 mg mL^−1) were added to each well and incubated for further 4 h at 37 °C. To stop the reaction and dissolve the formed crystals, 150 μL of 10% sodium dodecyl sulfate (SDS) in deionized water were added to each well and incubated overnight at 37 °C.
# Data were collected as mean values for experiments performed in triplicates for each individual dose which had been measured by MTT assay. […] The percentage of cell survival was calculated according to the following equation. [drawing 1]
# Statistical calculations for determination of the mean and standard error values were determined by SPSS 16 software.
# [4] = test system: mice; assay: Acute toxicological bio-assay in mice; assay type: in vivo; conditions: intraperitoneal, 50, 100 and 250 mg kg−1, recorded 24 h post-administration
# Description: Albino mice weighing 20–25 g were divided into 4 groups of 6 mice each. Administrations of the tested compounds dissolved in saline solution (0.9%) by the aid of few drops of Tween 80 were given intraperitoneally in 50, 100 and 250 mg kg^−1 (mice body weight). The control group was given a saline solution only with few drops of Tween 80. The toxic symptoms and mortality rates were recorded 24 h post-administration in each group.
# [5] = biological target: T1, AChE; assay: 2D-QSAR (BMLR, CODESSA-Pro) model, AChE inhibitors; conditions: observed minus estimated IC50
# Source text: (§2) The cholinesterase properties observed were undertaken by CODESSA-Pro software accessible for optimizing 2D-QSAR models.[39–41] This is useful for well understanding the bio-observations and identifying the parameters necessary for bio-potency. Three descriptor QSAR models were developed due to the AChE and BChE inhibitory properties of the synthesized dispiro-compounds 8a–l (ESI Tables S4–S9, Fig. S40 and S41, details of the QSAR descriptors are also mentioned in the ESI). ^† […]
# (§3) Goodness of the QSAR models was supported by the comparative values of the correlation coefficient (R^2) with their cross validation of leave one-out (R^2cvOO) and leave many-out (R^2cvMO) [R^2 = 0.923, 0.979; R^2cvOO = 0.882, 0.936; R^2cvMO = 0.904, 0.956, for AChE and BChE models, respectively]. Standard deviation (s^2) and Fisher criteria (F) values of the models also support their goodness (s^2 = 0.026, 0.005; […]. Additionally, the correlations of the observed and predicted values “specially the high potent synthesized compounds” add good support for the attained models. […]
# (§4) Molecular modeling studies
# (§5) The synthesized dispiro[indoline-3,2'-pyrrolidine-3',3''-pyrrolidines] 8a‒l […]
# (§6) 2D-QSAR modeling by CODESSA-Pro (comprehensive descriptors for structural and statistical analysis) software. Geometry of the compounds was initially optimized by AM1 technique using hyperChem 8.0 then, uploaded to CODESSA-Pro for final geometrical structure optimization by MOPAC.10‒12 CODESSA-Pro calculated 656 molecular descriptors (constitutional, topological, geometrical, charge-related, semi-empirical, thermodynamical, molecular-type, atomic-type and bond-type descriptors) for […]
# (§7) the exported bio-active agents. Mathematical transformation of the experimental values […]
# (§8) QSAR model. The best multi-linear regression (BMLR) technique was utilized which is a stepwise search for the best n-parameter regression equations (where n stands for the number of descriptors used), based on the highest R2 (squared correlation coefficient), R2cvOO (squared cross-validation “leave one-out, LOO” coefficient), R2cvMO (squared cross-validation “leave many-out up to 20% of the training set, LMO” coefficient), F (Fisher statistical significance criteria) values, and s2 (standard deviation). The QSAR up to 3-descriptor model describing the biological activity of the bio-active agents were generated (obeying the thumb rule of 4:1 which is the ratio between the data points and the number of QSAR descriptor).
# (§9) Minimum (>0.1) bond order for atom C is an atomic type descriptor with the […]
# (§10) why the higher descriptor value, the lower AChE inhibitory efficacy of the tested agent as […]
# (§11) 2/SQRT(TMSA) (MOPAC PC) is a charge related descriptor with relatively high […]
# (§12) . Compounds with high descriptor value predicted low AChE
# (§13) 0.11715). HDCA2 (area weighed surface charge of hydrogen bonding donor atoms) can be calculated by equ. (1). 13
# (§14) HDCA2 = D … .DtotH‒donor (1)
# (§15) Where, standsSD for the solvent accessible surface area of H-bonding donor H atoms (selected by threshold charge), is the partialqD charge on H-bonding donor H atoms (selected by threshold charge) and is the totalStot solvent accessible molecular surface […]
# (§16) Square root of surface area for atom C is also a charge related descriptor with […]
# (§17) . For this reason, the higher descriptor value of […]
# [6] = biological target: T2, BChE; assay: 2D-QSAR (BMLR, CODESSA-Pro) model, BChE inhibitors; conditions: observed minus estimated IC50
# Source text: as §2, §3, §4, §5, §6, §7, §8, §9, §10, §11, §12, §13, §14, §15, §16, §17
# partial positively and negatively charged surface area can be calculated by equs. (2) and […]
# PPSA3 = A … .. (2)A∈{δA>0}
# PNSA3 = A … ..A∈{δA>0} (3)
# Where, is the positively/negativelySA charged solvent accessible atomic surface area and qA is the atomic partial charge.
# ZX Shadow/ZX rectangle is a geometrical descriptor with the highest coefficient […]
# . The higher descriptor value of […]
# compounds 8c and 8e, respectively). Relative shadow areas of a molecule can be determined by equ. (4). 13
# Where, C is contour of the projection of the molecule on the plane defined by two principal axes of the molecule (k = XY, XZ or YZ plane), , , = X • ν –x or yρ –y or zS(k) […]
# Maximum atomic state energy for atom O is an atomic type descriptor. […]
# [7] = 10 min incubation at 25 °C, read at 405 nm, read-out: IC50 of AChE (μM) ± SD
# [8] = log transformation of the observed IC50, read-out: Observed log(IC50, μM), AChE (converted)
# [9] = 10 min incubation at 25 °C, read at 405 nm, read-out: IC50 of BChE (μM) ± SD
# [10] = log transformation of the observed IC50, read-out: Observed log(IC50, μM), BChE (converted)
# T1 sequence (P22303 32-614): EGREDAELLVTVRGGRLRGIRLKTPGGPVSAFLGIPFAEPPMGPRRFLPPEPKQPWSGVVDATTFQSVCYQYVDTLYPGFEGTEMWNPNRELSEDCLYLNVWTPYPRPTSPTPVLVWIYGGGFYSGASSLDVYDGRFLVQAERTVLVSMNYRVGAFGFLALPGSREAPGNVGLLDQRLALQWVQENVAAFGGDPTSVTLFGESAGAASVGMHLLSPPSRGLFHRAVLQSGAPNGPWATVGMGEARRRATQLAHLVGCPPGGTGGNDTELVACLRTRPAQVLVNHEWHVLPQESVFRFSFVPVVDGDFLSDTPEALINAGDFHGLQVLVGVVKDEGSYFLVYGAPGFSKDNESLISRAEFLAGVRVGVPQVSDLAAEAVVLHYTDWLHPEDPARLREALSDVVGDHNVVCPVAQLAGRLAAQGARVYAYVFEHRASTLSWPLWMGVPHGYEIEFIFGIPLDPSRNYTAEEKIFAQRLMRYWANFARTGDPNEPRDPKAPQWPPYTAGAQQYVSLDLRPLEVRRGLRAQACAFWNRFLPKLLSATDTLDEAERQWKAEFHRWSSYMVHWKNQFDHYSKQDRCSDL
# T2 sequence (P06276 29-602): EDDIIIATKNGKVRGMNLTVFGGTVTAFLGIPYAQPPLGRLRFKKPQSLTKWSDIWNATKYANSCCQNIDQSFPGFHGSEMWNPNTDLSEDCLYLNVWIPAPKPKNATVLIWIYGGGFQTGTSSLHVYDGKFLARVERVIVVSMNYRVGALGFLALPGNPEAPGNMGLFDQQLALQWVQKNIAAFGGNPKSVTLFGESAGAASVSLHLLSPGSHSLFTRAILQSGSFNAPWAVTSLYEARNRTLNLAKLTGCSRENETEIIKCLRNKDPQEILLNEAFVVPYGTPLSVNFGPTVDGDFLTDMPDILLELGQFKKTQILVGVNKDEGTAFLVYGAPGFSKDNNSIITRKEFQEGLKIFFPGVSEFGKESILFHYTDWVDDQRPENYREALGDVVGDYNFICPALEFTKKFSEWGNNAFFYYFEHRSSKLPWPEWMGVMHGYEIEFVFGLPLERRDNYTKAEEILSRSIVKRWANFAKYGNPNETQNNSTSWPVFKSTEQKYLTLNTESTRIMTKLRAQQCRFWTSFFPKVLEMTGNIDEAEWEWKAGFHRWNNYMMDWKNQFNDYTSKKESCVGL
structure (smiles),measurement,setting,value
"COc1ccc2c(c1)C1(C(=O)N2)N(C)CC(c2ccc(Cl)cc2)C12CC(=O)N(c1ccccc1)C2=O (stereo not drawn) [Compound 8e, 4′-(4-Chlorophenyl)-5-methoxy-1′-methyl-1′′-phenyldispiro[indoline-3,2′-pyrrolidine-3′,3′′-pyrrolidine]-2,2′′,5′′-trione]",IC50,[1]; [7],3.4 µM and 3.35 µM
same,IC50,[1]; [8],3.35 µM
same,SI(AChE/BChE),[1],0.60
same,IC50,[2]; [9],5.6 µM and 5.63 µM
same,IC50,[2]; [10],5.63 µM
same,SI(BChE/AChE),[2],1.68
same,IC50,[3],> 100 µM
same,Mortality rates or toxicological symptoms,[4],None of the tested agents reveal any mortality rates or toxicological symptoms
same,"Error (difference between observed and estimated property values), AChE BMLR-QSAR model",[5],0.10 µM
same,"Error (difference between observed and estimated property values), BChE BMLR-QSAR model",[6],0.86 µM
"COc1ccc(C2CN(C)C3(C(=O)Nc4ccc(OC)cc43)C23CC(=O)N(c2ccccc2)C3=O)cc1 (stereo not drawn) [Compound 8g, 5-Methoxy-4′-(4-methoxyphenyl)-1′-methyl-1′′-phenyldispiro[indoline-3,2′-pyrrolidine-3′,3′′-pyrrolidine]-2,2′′,5′′-trione]",IC50,[1]; [7],3.2 µM and 3.15 µM
same,IC50,[1]; [8],3.15 µM
same,SI(AChE/BChE),[1],0.66
same,IC50,[2]; [9],4.7 µM and 4.74 µM
same,IC50,[2]; [10],4.74 µM
same,SI(BChE/AChE),[2],1.50
same,IC50,[3],> 100 µM
same,Mortality rates or toxicological symptoms,[4],None of the tested agents reveal any mortality rates or toxicological symptoms
same,"Error (difference between observed and estimated property values), AChE BMLR-QSAR model",[5],-1.78 µM
same,"Error (difference between observed and estimated property values), BChE BMLR-QSAR model",[6],-0.65 µM
"CN1CC(c2ccccc2)C2(CC(=O)N(c3ccc(Cl)cc3)C2=O)C12C(=O)Nc1ccccc12 (stereo not drawn) [Compound 8h, 1′′-(4-Chlorophenyl)-1′-methyl-4′-phenyldispiro[indoline-3,2′-pyrrolidine-3′,3′′-pyrrolidine]-2,2′′,5′′-trione]",IC50,[1]; [7],6.3 µM and 6.27 µM
same,IC50,[1]; [8],6.27 µM
same,SI(AChE/BChE),[1],1.17
same,IC50,[2]; [9],5.3 µM and 5.34 µM
same,IC50,[2]; [10],5.34 µM
same,SI(BChE/AChE),[2],0.85
same,IC50,[3],> 100 µM
same,Mortality rates or toxicological symptoms,[4],None of the tested agents reveal any mortality rates or toxicological symptoms
same,"Error (difference between observed and estimated property values), AChE BMLR-QSAR model",[5],-1.03 µM
same,"Error (difference between observed and estimated property values), BChE BMLR-QSAR model",[6],-0.81 µM
"COc1ccc2c(c1)C1(C(=O)N2)N(C)CC(c2ccc(Cl)cc2)C12CC(=O)N(c1ccc(Cl)cc1)C2=O (stereo not drawn) [Compound 8l, 1′′,4′-Bis(4-chlorophenyl)-5-methoxy-1′-methyldispiro[indoline-3,2′-pyrrolidine-3′,3′′-pyrrolidine]-2,2′′,5′′-trione]",IC50,[1]; [7],22 µM
same,IC50,[1]; [8],22 µM
same,SI(AChE/BChE),[1],0.62
same,IC50,[2]; [9],35.54 ± 0.33 µM
same,IC50,[2]; [10],35.5 µM
same,SI(BChE/AChE),[2],1.62
same,IC50,[3],> 100 µM
same,"Error (difference between observed and estimated property values), AChE BMLR-QSAR model",[5],-7.93 µM
same,"Error (difference between observed and estimated property values), BChE BMLR-QSAR model",[6],-0.71 µM

# — PMC9054546, “Synthesis and molecular modeling studies of cholinesterase inhibitor dispiro[indoline-3,2′-pyrrolidine-3′,3′′-pyrrolidines]” (RSC Advances, 2020)
